Source: patent US20060263304A1, “Method of controlling alcohol intake and reversing alcohol effects” (priority 2005, published 2006)

Test system: non-substance dependent individual
Experiment: Case report: Flumazenil nasal spray before business dinners, control of alcohol intake
Type: in vivo
From the text: As in the co-pending applications, medication sprays are used to accomplish the above noted tasks. any one of several technologies may be used: • 1) A nasal spray applicator affecting the vein endings in the mucosal membranes of the nasal passage; • 2) A mouth spray affecting the buccal mucosal membrane in the mouth area; • 3) A pulmonary inhaler aerosolization into the lungs; • 4) Any other delivery system that provides direct absorption through mucus membranes directly into the blood stream. For example, the nasal spray may be used by an individual to assist in maintaining control of his or her drinking on a frequent or daily basis because they or their loved ones feel their use of alcohol is excessive. The spray will also act as a behavior trigger to assist in reminding the individual or retraining the individual to mind the frequency, amount or setting of intake of alcohol. In this setting of spray-assisted control of alcohol use there is provided a positive reinforcement of successful moderation, and eventually, the spray assist should no longer be needed. From several hours before, and including even while the individual is already drinking, the user of this nasal spray simply squirts one to three doses into each nostril in order to substantially decrease the total consumption of alcohol at any one drinking session. The duration of the effect will vary from individual to individual. The administration of the spray may be repeated as often as one wishes over the period or course of drinking to achieve the desired results, that is, a reduction in the use of alcohol, whether in total amount or in rapidity of alcohol ingestion. Case Report: A non-substance dependent individual ([…]) used this nasal spray by spraying two squirts of the medication “Flumazenil” into each nostril before business dinners on two separate occasions. Without this medication, their usual pattern was the ingestion of one to two martinis before and at the beginning of the meal, followed by one to two glasses of wine during and after the meal.

SMILES: CCOC(=O)c1ncn2c1CN(C)C(=O)c1cc(F)ccc1-2 [Flumazenil]
- effect of the alcohol on their thinking and feeling (two squirts into each nostril before business dinner, each of two occasions, self-reported): less of an effect on their thinking and feeling than usual
- actual intake of wine (two squirts into each nostril before business dinner, each of two occasions, usual pattern without medication one to two glasses of wine): less than one glass of wine
- actual intake of martini (two squirts into each nostril before business dinner, each of two occasions, usual pattern without medication one to two martinis): less than one martini
- interest in the alcoholic beverages (two squirts into each nostril before business dinners, two separate occasions, one individual): substantially reduced
